One test relates to high risk women. The settings on record: versus placebo; cited from earlier work.
The subject of test [1] is women at increased risk of preterm delivery. Put plainly: PREMET subgroup providing saliva samples: metronidazole versus placebo. The test is classed as in vivo, human. The note with it: 17 women on metronidazole vs 7 on placebo (36.4 weeks), p=0.73, no significant difference. The source says: A group of women at increased risk of preterm delivery participating in a study to assess the potential benefit of metronidazole in the prevention of preterm delivery (The PREMET study') provided saliva specimens from 24 weeks of gestation until 34 weeks or delivery in order to interrogate further the association between the steroid hormone profile and gestational age at delivery.
In the PREMET study 892 women with singleton pregnancies, who had at least one risk factor for preterm delivery, were recruited between 23^+0 and 24^+6 weeks over a four and a half year period.^1 Eligibility included singleton pregnancy with a history of preterm birth or preterm prelabour rupture of the membranes before 37 completed weeks of gestation, previous late miscarriage, uterine anatomical abnormality, cervical surgery prior to the index pregnancy or current cervical cerclage. Women were screened for cervico-vaginal fetal fibronectin (fFN) at 24 and 27 weeks gestation. Those who were fFN positive (≧50 ng/mL) were randomised to receive a one week course of metronidazole or placebo.
Weekly saliva samples, provided from 24 weeks of gestation until 34 weeks or delivery, were analysed for saliva E3 and progesterone by radioimmunoassay as previously described.^3 Briefly, aliquots (100 μL) of saliva were mixed with 50 μL sodium carbonate solution pH 10.5 and extracted with 10 volumes of diethyl ether. […]

Test [2] shares this test system. The note with it: whole PREMET study, fFN positive women, one week course; cited from earlier work.

With `CCCCCC(=O)O[C@]1(C(C)=O)CC[C@H]2[C@@H]3CCC4=CC(=O)CC[C@]4(C)[C@H]3CC[C@@]21C` [17α hydroxyprogesterone caproate], the “benefit of the intervention” value in the test with high risk women is recorded as “significant benefit”.
Take `Cc1ncc([N+](=O)[O-])n1CCO` [metronidazole]: the “gestational age at delivery” value in test [1] amounted to 35.6 weeks. Moreover, the “preterm delivery associated with treatment” value in test [2] was “small but significant increase”.

The values are drawn from US20120157422A1, “MARKER” (UCL BUSINESS PLC, priority 2009, published 2012).
